Experiments:
[1] = system: (MSC)-hTERT mesenchymal stem cells; assay: Cryopreservation tests on (MSC)-hTERT mesenchymal stem cells with TGF-β treatment; format: cell-based
Text: It is noted that further cryopreservation tests on (MSC)-hTERT mesenchymal stem cells using the above-mentioned DMSO/FBS and PCM also show similar results for both cryopreservation media.

[2] = system: CT5.3-hTERT colon cancer-associated fibroblasts; assay: TGF-β-mediated growth inhibition in CT5.3-hTERT cells after cryopreservation (SRB assay, cell counter); format: cell-based; settings: control group (routine culture, not cryopreserved); TGF-β 1 ng/ml for 1 week; n=3
Method: Immortalized CT5.3-hTERT colon cancer-associated fibroblasts have been used to evaluate cellular function following cryopreservation with two different cryopreservation media: • 1) a 10:90 (% V/V) mixture of dimethylsulfoxide (DMSO) and fetal bovine serum (FBS), as known in the art; and • 2) a propylene glycol-based DMSO-free cryopreservation medium as described in Table 1 (hereafter referred to as “PCM”).
Briefly, early passage cells were cultured in routine culture medium (Dulbecco's Modified Eagle Medium (DMEM) containing 10% FBS, antibiotics and an antifungal product) at 37° C. in a humidified atmosphere with 5% CO2. Semi-confluent cells were harvested by trypsinization and cell concentration was assessed using the trypan blue exclusion method. […]
The cells of each group were treated with recombinant TGF-β (1 ng/ml) for 1 week. At the end of the experiment, cell concentration was measured using the sulforhodamine B (SRB) assay and an automated cell counter (trypan blue exclusion), respectively. […] Protein content was assessed by the bicinchoninic acid (BCA) test and concentrations were normalized, thus allowing for equal protein load for Western blot analysis. Expression of α-SMA was evaluated using a monoclonal HRP-coupled antibody, directed against this myofibroblast marker. […]

## TGF-β
[1]
  effect of TGF-β on α-SMA expression: not to alter α-SMA expression
[2]
  inhibition of cell proliferation by TGF-β: 79.84+/−4.43
